From patent US8716284B2, “Adamantyl diamide derivatives and uses of same” (H. Lundbeck A/S, priority 2008, dated 2014) come the findings set out here.

The target of the experiment is T1, rat metabotropic glutamate receptor 5 (mGluR5) (Rattus norvegicus, UniProt P31424).
T1 construct: expressed in transfected cells; host or cells: HEK 293
Kind of experiment: Calcium mobilization assay (FLIPR) for negative or positive allosteric activity, HEK 293 cells. The experiment is classed as cell-based. The note with it: HEK293, negative allosteric modulation, inhibition of EC80 glutamate response; read-out: FLIPR maximum inhibition. The procedure, abridged: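 Peak Fluo-4 calcium signal over 3 min at room temperature, minus basal, fitted by Hill equation, in stable rat mGluR5 HEK 293 cells (HBSS/HEPES pH 7.4, BSA, probenecid). Inhibition scored against EC80 glutamate, potentiation against EC20 glutamate, glutamate given with compound.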
For orientation: Calcium assays in cells follow changes in intracellular calcium, usually with a dye or a luminescent sensor.

T1 sequence (P31424 21-1171 isoform P31424-2 limits assumed): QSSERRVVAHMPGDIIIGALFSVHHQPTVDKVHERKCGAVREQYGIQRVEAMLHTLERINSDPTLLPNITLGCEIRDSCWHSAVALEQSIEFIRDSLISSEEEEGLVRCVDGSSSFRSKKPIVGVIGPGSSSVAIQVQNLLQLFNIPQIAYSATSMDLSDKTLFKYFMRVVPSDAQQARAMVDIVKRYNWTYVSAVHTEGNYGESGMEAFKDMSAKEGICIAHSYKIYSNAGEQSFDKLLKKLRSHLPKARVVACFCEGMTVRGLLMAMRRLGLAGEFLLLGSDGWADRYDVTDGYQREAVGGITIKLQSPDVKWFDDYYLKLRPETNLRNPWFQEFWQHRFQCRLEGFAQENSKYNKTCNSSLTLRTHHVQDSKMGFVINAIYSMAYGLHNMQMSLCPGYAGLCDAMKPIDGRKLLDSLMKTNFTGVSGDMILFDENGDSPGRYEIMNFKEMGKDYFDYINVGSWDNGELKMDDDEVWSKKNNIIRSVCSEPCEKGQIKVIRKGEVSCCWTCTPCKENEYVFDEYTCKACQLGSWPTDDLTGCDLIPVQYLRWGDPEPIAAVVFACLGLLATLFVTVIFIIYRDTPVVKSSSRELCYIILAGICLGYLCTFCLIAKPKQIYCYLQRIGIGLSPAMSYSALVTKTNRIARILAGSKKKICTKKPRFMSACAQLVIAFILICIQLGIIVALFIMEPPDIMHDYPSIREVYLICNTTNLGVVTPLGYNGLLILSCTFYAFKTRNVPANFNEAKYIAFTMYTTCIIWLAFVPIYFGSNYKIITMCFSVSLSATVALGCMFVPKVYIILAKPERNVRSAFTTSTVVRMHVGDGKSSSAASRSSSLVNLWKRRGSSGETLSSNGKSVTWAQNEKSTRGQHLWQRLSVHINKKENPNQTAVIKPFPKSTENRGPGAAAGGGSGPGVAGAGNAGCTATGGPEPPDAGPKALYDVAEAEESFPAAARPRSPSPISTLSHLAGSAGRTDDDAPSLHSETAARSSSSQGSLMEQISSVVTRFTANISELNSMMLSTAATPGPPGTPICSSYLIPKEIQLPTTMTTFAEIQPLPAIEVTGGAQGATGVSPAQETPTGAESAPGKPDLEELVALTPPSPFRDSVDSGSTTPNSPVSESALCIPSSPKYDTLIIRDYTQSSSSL

In the case of `Cc1cccc(C(=O)NC23CC4CC(CC(NC(=O)c5cc(F)ccn5)(C4)C2)C3)n1` [Example 125, 6-Methyl-pyridine-2-carboxylic acid {3-[(4-fluoropyridine-2-carbonyl)-amino]-adamantan-1-yl}-amide], the Emax was 70 to 99%.
Consider `O=C(NC12CC3CC(C1)CC(NC(=O)c1ccc4ccccc4n1)(C3)C2)c1ccc2ccccc2n1` [Example 12, N,N′-(1,3-adamantylene)bis(quinoline-2-carboxamide)], for which the Emax lay in the range of 63 to 99%.
Then `O=C(NC12CC3CC(C1)CC(NC(=O)c1ccccn1)(C3)C2)c1cccc(Cl)c1` [Example 6, Pyridine-2-carboxylic acid [3-(3-chloro-benzoylamino)-adamantan-1-yl]-amide], with 90 to 99%.
Turning to `CN(CCO)c1cccc(C(=O)NC23CC4CC(CC(NC(=O)c5ccccn5)(C4)C2)C3)n1` [Example 202, 6-[(2-Hydroxy-ethyl)-methyl-amino]-pyridine-2-carboxylic acid {3-[(pyridine-2-carbonyl)-amino]-adamantan-1-yl}-amide], the Emax is 63 to 99%.
Turning to `CC(C)(C)OC(=O)N1CCc2cc(C(=O)NC34CC5CC(C3)CC(NC(=O)c3ccccn3)(C5)C4)ccc2C1` [Example 70, 6-{3-[(Pyridine-2-carbonyl)-amino]-adamantan-1-yl-carbamoyl}-3,4-dihydro-1H-isoquinoline-2-carboxylic acid tert-butyl ester], the Emax fell in the range of 63 to 99%.
The same measure for `O=C(NC12CC3CC(C1)CC(NC(=O)c1ccc4nccn4c1)(C3)C2)c1cccc(F)c1` [Example 101, Imidazo[1,2-a]pyridine-6-carboxylic acid [3-(3-fluoro-benzoylamino)-adamantan-1-yl]-amide]: 63 to 99%; for `Cc1cccc(C(=O)NC23CC4CC(C2)CC(NC(=O)c2ccc5cnccc5n2)(C4)C3)n1` [Example 123, [1,6]Naphthyridine-2-carboxylic acid {3-[(6-methyl-pyridine-2-carbonyl)-amino]-adamantan-1-yl}-amide]: 70 to 99%.
For the molecule `Cc1cccc(C(=O)NC23CC4CC(C2)CC(NC(=O)c2nccs2)(C4)C3)n1` [Example 40, 6-Methyl-pyridine-2-carboxylic acid {3-[(thiazole-2-carbonyl)-amino]-adamantan-1-yl}-amide], the Emax was in the range of 63 to 99%.
For `Cc1cncc(C(=O)NC23CC4CC(CC(NC(=O)c5cncc(Cl)c5)(C4)C2)C3)n1` [Example 170, 6-Methyl-pyrazine-2-carboxylic acid {3-[(5-chloro-pyridine-3-carbonyl)-amino]-adamantan-1-yl}-amide], the Emax fell in the range of 63 to 99%.
In the case of `Cc1cc(C(=O)NC23CC4CC(CC(NC(=O)c5ccccn5)(C4)C2)C3)nc(C)n1` [Example 106, 2,6-Dimethyl-pyrimidine-4-carboxylic acid {3-[(pyridine-2-carbonyl)-amino]-adamantan-1-yl}-amide], the Emax was 70 to 99%.
For the molecule `Cc1cc(F)cc(C(=O)NC23CC4CC(C2)CC(NC(=O)c2cncc(C)n2)(C4)C3)c1` [Example 158, 6-Methyl-pyrazine-2-carboxylic acid [3-(3-fluoro-5-methyl-benzoylamino)-adamantan-1-yl]-amide], the Emax lay within 70 to 99%.
Then `Cc1cccc(C(=O)NC23CC4CC(CC(NC(=O)c5ccncc5)(C4)C2)C3)n1` [Example 116, 6-Methyl-pyridine-2-carboxylic acid {3-[(pyridine-4-carbonyl)-amino]-adamantan-1-yl}-amide], with 70 to 99%.
In the case of `O=C(NC12CC3CC(C1)CC(NC(=O)c1ccc(F)cn1)(C3)C2)c1ccccn1` [Example 111, 5-Fluoro-pyridine-2-carboxylic acid {3-[(pyridine-2-carbonyl)-amino]-adamantan-1-yl}-amide], the Emax lay within 70 to 99%.
`CN(C)CCNc1cccc(C(=O)NC23CC4CC(CC(NC(=O)c5cccc(F)c5)(C4)C2)C3)n1` [Example 242, 6-(2-Dimethylamino-ethylamino)-pyridine-2-carboxylic acid [3-(3-fluoro-benzoylamino)-adamantan-1-yl]-amide]: the Emax was in the range of 63 to 99%.
Turning to `Cc1cccc(C(=O)NC23CC4CC(C2)CC(NC(=O)c2coc(C)n2)(C4)C3)n1` [Example 29, 6-Methyl-pyridine-2-carboxylic acid {3-[(2-methyl-oxazole-4-carbonyl)-amino]-adamantan-1-yl}-amide], the Emax lay within 63 to 99%.
The same measure for `O=C(NC12CC3CC(C1)CC(NC(=O)c1cccc(NCCO)n1)(C3)C2)c1cccc(F)c1` [Example 212, 6-(2-Hydroxy-ethylamino)-pyridine-2-carboxylic acid [3-(3-fluoro-benzoylamino)-adamantan-1-yl]-amide]: 63 to 99%.
`Cc1ccc2nc(C(=O)NC34CC5CC(CC(NC(=O)c6cccc(C)n6)(C5)C3)C4)cn2c1` [Example 54, 6-Methyl-imidazo[1,2-a]pyridine-2-carboxylic acid {3-[(6-methyl-pyridine-2-carbonyl)-amino]-adamantan-1-yl}-amide]: the Emax lay within 63 to 99%.
Turning to `Cc1cncc(C(=O)NC23CC4CC(C2)CC(NC(=O)c2ncccn2)(C4)C3)n1` [Example 172, Pyrimidine-2-carboxylic acid {3-[(6-methyl-pyrazine-2-carbonyl)-amino]-adamantan-1-yl}-amide], the Emax was 63 to 99%.
For the molecule `COCCNc1cccc(C(=O)NC23CC4CC(CC(NC(=O)c5ccccn5)(C4)C2)C3)n1` [Example 224, 6-(2-Methoxy-ethylamino)-pyridine-2-carboxylic acid {3-[(pyridine-2-carbonyl)-amino]-adamantan-1-yl}-amide], the Emax was 63 to 99%.
For the molecule `COCCCNc1cccc(C(=O)NC23CC4CC(CC(NC(=O)c5ccccn5)(C4)C2)C3)n1` [Example 220, 6-(3-Methoxy-propylamino)-pyridine-2-carboxylic acid {3-[(pyridine-2-carbonyl)-amino]-adamantan-1-yl}-amide], the Emax was 63 to 99%.
In the case of `Cc1cncc(C(=O)NC23CC4CC(C2)CC(NC(=O)c2cc(C(F)(F)F)ccc2F)(C4)C3)n1` [Example 169, 6-Methyl-pyrazine-2-carboxylic acid [3-(2-fluoro-5-trifluoromethyl-benzoylamino)-adamantan-1-yl]-amide], the Emax lay within 63 to 99%.
As to `O=C(NC12CC3CC(C1)CC(NC(=O)c1cccc(N4CCOCC4)n1)(C3)C2)c1ccccn1` [Example 197, 6-Morpholin-4-yl-pyridine-2-carboxylic acid {3-[(pyridine-2-carbonyl)-amino]-adamantan-1-yl}-amide], the Emax fell in the range of 63 to 99%.
Then `Cc1cncc(C(=O)NC23CC4CC(CC(NC(=O)c5cc(F)ccn5)(C4)C2)C3)n1` [Example 171, 6-Methyl-pyrazine-2-carboxylic acid {3-[(4-fluoro-pyridine-2-carbonyl)-amino]-adamantan-1-yl}-amide], with 63 to 99%.
In the case of `Cc1cc(C(=O)NC23CC4CC(CC(NC(=O)c5ccccn5)(C4)C2)C3)nn1C` [Example 109, Pyridine-2-carboxylic acid {3-[(1,5-dimethyl-1H-pyrazole-3-carbonyl)-amino]-adamantan-1-yl}-amide], the Emax is 70 to 99%.
With `CCOc1cccc(C(=O)NC23CC4CC(C2)CC(NC(=O)c2cncc(C)n2)(C4)C3)c1` [Example 147, 6-Methyl-pyrazine-2-carboxylic acid [3-(3-ethoxy-benzoylamino)-adamantan-1-yl]-amide], the Emax fell in the range of 70 to 99%.
In the case of `Cc1cccc(C(=O)NC23CC4CC(C2)CC(NC(=O)c2cnc5ccccc5n2)(C4)C3)n1` [Example 34, Quinoxaline-2-carboxylic acid {3-[(6-methyl-pyridine-2-carbonyl)-amino]-adamantan-1-yl}-amide], the Emax fell in the range of 63 to 99%.
For `Cc1cc(C(=O)NC23CC4CC(CC(NC(=O)c5ccccn5)(C4)C2)C3)on1` [Example 78, Pyridine-2-carboxylic acid {3-[(3-methyl-isoxazole-5-carbonyl)-amino]-adamantan-1-yl}-amide], the Emax fell in the range of 63 to 99%.
On to `Cc1ccn2cc(C(=O)NC34CC5CC(CC(NC(=O)c6cccc(F)c6)(C5)C3)C4)nc2c1` [Example 104, 7-Methyl-imidazo[1,2-a]pyridine-2-carboxylic acid [3-(3-fluoro-benzoylamino)-adamantan-1-yl]-amide], for which the Emax fell in the range of 63 to 99%.
The same measure for `Cc1cccc(C(=O)NC23CC4CC(C2)CC(NC(=O)c2ncccn2)(C4)C3)n1` [Example 121, Pyrimidine-2-carboxylic acid {3-[(6-methyl-pyridine-2-carbonyl)-amino]-adamantan-1-yl}-amide]: 70 to 99%; for `COc1cccc(C(=O)NC23CC4CC(CC(NC(=O)c5cncc(C)n5)(C4)C2)C3)n1` [Example 151, 6-Methyl-pyrazine-2-carboxylic acid {3-[(6-methoxy-pyridine-2-carbonyl)-amino]-adamantan-1-yl}-amide]: 70 to 99%.
Then `Cc1cncc(C(=O)NC23CC4CC(C2)CC(NC(=O)c2cccc(Cl)c2F)(C4)C3)n1` [Example 152, 6-Methyl-pyrazine-2-carboxylic acid [3-(3-chloro-2-fluoro-benzoylamino)-adamantan-1-yl]-amide], with 70 to 99%.
In the case of `Cc1ccnc(C(=O)NC23CC4CC(C2)CC(NC(=O)c2cccc(C)n2)(C4)C3)c1` [Example 28, 4-Methyl-pyridine-2-carboxylic acid {3-[(6-methyl-pyridine-2-carbonyl)-amino]-adamantan-1-yl}-amide], the Emax fell in the range of 63 to 99%.
Then `COCCCNc1cccc(C(=O)NC23CC4CC(CC(NC(=O)c5cccc(C)n5)(C4)C2)C3)n1` [Example 231, 6-(3-Methoxy-propylamino)-pyridine-2-carboxylic acid {3-[(6-methyl-pyridine-2-carbonyl)-amino]-adamantan-1-yl}-amide], with 63 to 99%.
